In brackets after ≈: the same amount, converted by molar mass.
Legend:
Format in all cases: functional
Ruminococcus gnavus = experiment: Antimicrobial activity against Ruminococcus gnavus by Wadsworth agar dilution method in presence of beta-lactamase inhibitor Sulbactam; conditions: Mediterraneibacter gnavus
Prevotella bivia = experiment: Antimicrobial activity against Prevotella bivia by Wadsworth agar dilution method in presence of beta-lactamase inhibitor Sulbactam
[1] = test system: Prevotella melaninogenica; experiment: Antimicrobial activity against Prevotella melaninogenica by Wadsworth agar dilution method in presence of beta-lactamase inhibitor Sulbactam
Cutibacterium acnes = experiment: Antimicrobial activity against Propionibacterium acnes by Wadsworth agar dilution method in presence of beta-lactamase inhibitor Sulbactam
Bacteroides nordii = experiment: Antimicrobial activity against Bacteroides nordii by Wadsworth agar dilution method in presence of beta-lactamase inhibitor Sulbactam
Actinomyces viscosus = experiment: Antimicrobial activity against Actinomyces viscosus by Wadsworth agar dilution method in presence of beta-lactamase inhibitor Sulbactam
Blautia producta = experiment: Antimicrobial activity against Ruminococcus productus by Wadsworth agar dilution method in presence of beta-lactamase inhibitor Sulbactam
[2] = test system: Parabacteroides distasonis; experiment: Antimicrobial activity against Parabacteroides distasonis by Wadsworth agar dilution method in presence of beta-lactamase inhibitor Sulbactam
Prevotella disiens = experiment: Antimicrobial activity against Prevotella disiens by Wadsworth agar dilution method in presence of beta-lactamase inhibitor Sulbactam
Thomasclavelia ramosa = experiment: Antimicrobial activity against Clostridium ramosum by Wadsworth agar dilution method in presence of beta-lactamase inhibitor Sulbactam
[3] = test system: Clostridium acetobutylicum; experiment: Antimicrobial activity against Clostridium acetobutylicum by Wadsworth agar dilution method in presence of beta-lactamase inhibitor Sulbactam
Parabacteroides merdae = experiment: Antimicrobial activity against Parabacteroides merdae by Wadsworth agar dilution method in presence of beta-lactamase inhibitor Sulbactam
[4] = test system: Catenibacterium mitsuokai; experiment: Antimicrobial activity against Catenibacterium mitsuokai by Wadsworth agar dilution method in presence of beta-lactamase inhibitor Sulbactam
Desulfovibrio sp. = experiment: Antimicrobial activity against Desulfovibrio sp. by Wadsworth agar dilution method in presence of beta-lactamase inhibitor Sulbactam
[5] = test system: Desulfovibrio fairfieldensis; experiment: Antimicrobial activity against Desulfovibrio fairfieldensis by Wadsworth agar dilution method in presence of beta-lactamase inhibitor Sulbactam
[6] = test system: Limosilactobacillus reuteri; experiment: Antimicrobial activity against Lactobacillus reuteri by Wadsworth agar dilution method in presence of beta-lactamase inhibitor Sulbactam
[7] = test system: Limosilactobacillus fermentum; experiment: Antimicrobial activity against Lactobacillus fermentum by Wadsworth agar dilution method in presence of beta-lactamase inhibitor Sulbactam
Clostridium symbiosum = experiment: Antimicrobial activity against Clostridium symbiosum by Wadsworth agar dilution method in presence of beta-lactamase inhibitor Sulbactam
[8] = test system: Bifidobacterium adolescentis; experiment: Antimicrobial activity against Bifidobacterium adolescentis by Wadsworth agar dilution method in presence of beta-lactamase inhibitor Sulbactam
Fusobacterium sp. = experiment: Antimicrobial activity against Fusobacterium sp. by Wadsworth agar dilution method in presence of beta-lactamase inhibitor Sulbactam
Anaerococcus prevotii [9] = experiment: Antimicrobial activity against Anaerococcus prevotii by Wadsworth agar dilution method in presence of beta-lactamase inhibitor Sulbactam
Finegoldia magna = experiment: Antimicrobial activity against Finegoldia magna by Wadsworth agar dilution method
Clostridium bolteae = experiment: Antimicrobial activity against Clostridium bolteae by Wadsworth agar dilution method; conditions: Enterocloster bolteae
[10] = test system: Bifidobacterium adolescentis; experiment: Antimicrobial activity against Bifidobacterium adolescentis by Wadsworth agar dilution method
Clostridium cocleatum = experiment: Antimicrobial activity against Clostridium cocleatum by Wadsworth agar dilution method; conditions: Thomasclavelia cocleata
Clostridium leptum = experiment: Antimicrobial activity against Clostridium leptum by Wadsworth agar dilution method
[11] = test system: Bifidobacterium pseudolongum; experiment: Antimicrobial activity against Bifidobacterium pseudolongum by Wadsworth agar dilution method
Atopobium minutum = experiment: Antimicrobial activity against Atopobium minutum by Wadsworth agar dilution method
[12] = test system: Desulfovibrio fairfieldensis; experiment: Antimicrobial activity against Desulfovibrio fairfieldensis by Wadsworth agar dilution method
Schaalia odontolytica = experiment: Antimicrobial activity against Actinomyces odontolyticus by Wadsworth agar dilution method
[13] = test system: Limosilactobacillus fermentum; experiment: Antimicrobial activity against Lactobacillus fermentum by Wadsworth agar dilution method
Bacteroides fragilis = experiment: Antimicrobial activity against Bacteroides fragilis by Wadsworth agar dilution method
Hoylesella loescheii = experiment: Antimicrobial activity against Prevotella loescheii by Wadsworth agar dilution method
Blautia luti = experiment: Antimicrobial activity against Ruminococcus luti by Wadsworth agar dilution method
[14] = test system: Porphyromonas asaccharolytica; experiment: Antimicrobial activity against Porphyromonas asaccharolyticus by Wadsworth agar dilution method
[15] = test system: Parabacteroides goldsteinii; experiment: Antimicrobial activity against Parabacteroides goldsteinii by Wadsworth agar dilution method
Propionibacterium avidum = experiment: Antimicrobial activity against Propionibacterium avidum by Wadsworth agar dilution method; conditions: Cutibacterium avidum
Anaerococcus prevotii [16] = experiment: Antimicrobial activity against Anaerococcus prevotii by Wadsworth agar dilution method
[17] = test system: Pseudoramibacter alactolyticus; experiment: Antimicrobial activity against Eubacterium alactolyticum by Wadsworth agar dilution method
[18] = test system: Fusobacterium necrophorum; experiment: Antimicrobial activity against Fusobacterium necrophorum by Wadsworth agar dilution method
Bifidobacterium bifidum = experiment: Antimicrobial activity against Bifidobacterium bifidum by Wadsworth agar dilution method

Compound: CC1(C)S[C@@H]2[C@H](NC(=O)[C@H](N)c3ccccc3)C(=O)N2[C@H]1C(=O)O [AMPICILLIN]
- MIC (Ruminococcus gnavus): 0.25 µg/mL
- MIC50 (Ruminococcus gnavus): 0.25 µg/mL
- MIC90 (Ruminococcus gnavus): 2 µg/mL
- MIC50 (Prevotella bivia): 0.5 µg/mL
- MIC90 (Prevotella bivia): 4 µg/mL
- MIC50 [1]: 0.5 µg/mL
- MIC90 [1]: 4 µg/mL
- MIC (Cutibacterium acnes): 0.25 µg/mL
- MIC50 (Cutibacterium acnes): 0.25 µg/mL
- MIC90 (Cutibacterium acnes): 2 µg/mL
- MIC50 (Bacteroides nordii): 2 µg/mL
- MIC90 (Bacteroides nordii): 16 µg/mL
- MIC (Actinomyces viscosus): 0.25 µg/mL
- MIC50 (Actinomyces viscosus): 0.25 µg/mL
- MIC90 (Actinomyces viscosus): 2 µg/mL
- MIC (Blautia producta): 0.25 µg/mL
- MIC50 (Blautia producta): 0.25 µg/mL
- MIC90 (Blautia producta): 2 µg/mL
- MIC50 [2]: 16 µg/mL
- MIC90 [2]: 32 µg/mL
- MIC50 (Prevotella disiens): 0.5 µg/mL
- MIC90 (Prevotella disiens): 4 µg/mL
- MIC (Thomasclavelia ramosa): 0.25 µg/mL
- MIC50 (Thomasclavelia ramosa): 0.25 µg/mL
- MIC90 (Thomasclavelia ramosa): 1 µg/mL
- MIC [3]: 0.25 µg/mL
- MIC50 [3]: 0.25 µg/mL
- MIC90 [3]: 1 µg/mL
- MIC50 (Parabacteroides merdae): 16 µg/mL
- MIC90 (Parabacteroides merdae): 32 µg/mL
- MIC [4]: 0.25 µg/mL
- MIC50 [4]: 0.25 µg/mL
- MIC90 [4]: 2 µg/mL
- MIC50 (Desulfovibrio sp.): 4 µg/mL
- MIC90 (Desulfovibrio sp.): 32 µg/mL
- MIC50 [5]: 4 µg/mL
- MIC90 [5]: 32 µg/mL
- MIC [6]: 0.25 µg/mL
- MIC50 [6]: 0.25 µg/mL
- MIC90 [6]: 2 µg/mL
- MIC [7]: 0.25 µg/mL
- MIC50 [7]: 0.25 µg/mL
- MIC90 [7]: 2 µg/mL
- MIC (Clostridium symbiosum): 0.25 µg/mL
- MIC50 (Clostridium symbiosum): 0.25 µg/mL
- MIC90 (Clostridium symbiosum): 1 µg/mL
- MIC [8]: 0.25 µg/mL
- MIC50 [8]: 0.25 µg/mL
- MIC90 [8]: 2 µg/mL
- MIC50 (Fusobacterium sp.): 1 µg/mL
- MIC90 (Fusobacterium sp.): 4 µg/mL
- MIC (Anaerococcus prevotii [9]): 0.25 µg/mL
- MIC50 (Anaerococcus prevotii [9]): 0.25 µg/mL
- MIC90 (Anaerococcus prevotii [9]): 2 µg/mL

Compound: CN[C@H](CC(C)C)C(=O)N[C@H]1C(=O)N[C@@H](CC(N)=O)C(=O)N[C@H]2C(=O)N[C@H]3C(=O)N[C@H](C(=O)N[C@H](C(=O)O)c4cc(O)cc(O)c4-c4cc3ccc4O)[C@H](O)c3ccc(c(Cl)c3)Oc3cc2cc(c3O[C@@H]2O[C@H](CO)[C@@H](O)[C@H](O)[C@H]2O[C@H]2C[C@](C)(N)[C@H](O)[C@H](C)O2)Oc2ccc(cc2Cl)[C@H]1O [VANCOMYCIN]
- MIC50 (Finegoldia magna): 0.5 µg/mL (≈ 0.345 µM)
- MIC90 (Finegoldia magna): 1 µg/mL (≈ 0.69 µM)
- MIC50 (Clostridium bolteae): 1 µg/mL (≈ 0.69 µM)
- MIC90 (Clostridium bolteae): 4 µg/mL (≈ 2.76 µM)
- MIC50 [10]: 1 µg/mL (≈ 0.69 µM)
- MIC90 [10]: 64 µg/mL (≈ 44.2 µM)
- MIC50 (Clostridium cocleatum): 1 µg/mL (≈ 0.69 µM)
- MIC90 (Clostridium cocleatum): 4 µg/mL (≈ 2.76 µM)
- MIC50 (Clostridium leptum): 1 µg/mL (≈ 0.69 µM)
- MIC90 (Clostridium leptum): 4 µg/mL (≈ 2.76 µM)
- MIC50 [11]: 1 µg/mL (≈ 0.69 µM)
- MIC90 [11]: 64 µg/mL (≈ 44.2 µM)
- MIC50 (Atopobium minutum): 1 µg/mL (≈ 0.69 µM)
- MIC90 (Atopobium minutum): 64 µg/mL (≈ 44.2 µM)
- MIC50 [12]: > 1020 µg/mL
- MIC90 [12]: > 1020 µg/mL
- MIC50 (Schaalia odontolytica): 1 µg/mL (≈ 0.69 µM)
- MIC90 (Schaalia odontolytica): 64 µg/mL (≈ 44.2 µM)
- MIC50 [13]: 1 µg/mL (≈ 0.69 µM)
- MIC90 [13]: 64 µg/mL (≈ 44.2 µM)
- MIC50 (Bacteroides fragilis): 64 µg/mL (≈ 44.2 µM)
- MIC90 (Bacteroides fragilis): 128 µg/mL (≈ 88.3 µM)
- MIC50 (Hoylesella loescheii): 128 µg/mL (≈ 88.3 µM)
- MIC90 (Hoylesella loescheii): 256 µg/mL (≈ 177 µM)
- MIC50 (Blautia luti): 0.5 µg/mL (≈ 0.345 µM)
- MIC90 (Blautia luti): 1 µg/mL (≈ 0.69 µM)
- MIC50 [14]: 4 µg/mL (≈ 2.76 µM)
- MIC90 [14]: 8 µg/mL (≈ 5.52 µM)
- MIC50 [15]: 128 µg/mL (≈ 88.3 µM)
- MIC90 [15]: 128 µg/mL (≈ 88.3 µM)
- MIC50 (Propionibacterium avidum): 1 µg/mL (≈ 0.69 µM)
- MIC90 (Propionibacterium avidum): 64 µg/mL (≈ 44.2 µM)
- MIC50 (Anaerococcus prevotii [16]): 0.5 µg/mL (≈ 0.345 µM)
- MIC90 (Anaerococcus prevotii [16]): 1 µg/mL (≈ 0.69 µM)
- MIC50 [17]: 1 µg/mL (≈ 0.69 µM)
- MIC90 [17]: 64 µg/mL (≈ 44.2 µM)
- MIC50 [18]: 256 µg/mL (≈ 177 µM)
- MIC90 [18]: > 1020 µg/mL
- MIC50 (Bifidobacterium bifidum): 1 µg/mL (≈ 0.69 µM)
- MIC90 (Bifidobacterium bifidum): 64 µg/mL (≈ 44.2 µM)

Reference: ChEMBL document CHEMBL1275577, “Study of the in vitro activities of rifaximin and comparator agents against 536 anaerobic intestinal bacteria from the perspective of potential utility in pathology involving bowel flora” (Antimicrob Agents Chemother, 2009)
